# Assay results reported in article PMC10961402, “Safety, tolerability, pharmacokinetics and pharmacokinetic-pharmacodynamic modeling of cetagliptin in patients with type 2 diabetes mellitus” (Frontiers in Endocrinology, 2024).
# Read-outs that look alike come from different tables or passages of the source.
# Tests used:
# serum DPP-4 activity = test system: serum DPP-4 activity; parameters: method as in PMID 22686547; settings: Zucker Diabetic Fatty rats; preclinical studies (data not published); cited from earlier work
# [1] = test system: glucose, insulin, C-peptide, and glucagon; assay: Oral glucose tolerance test (OGTT): glucose, insulin, C-peptide, glucagon; type: in vivo, human; parameters: change of AUEC0-3 h relative to baseline for insulin (OGTT) / change of AUEC0-3 h relative to baseline for C-peptide (OGTT) / change of AUEC0-3 h relative to baseline for glucagon (OGTT) / C-peptide AUEC0-t (OGTT) / glucagon AUEC0-t (OGTT) / insulin AUEC0-t (OGTT): unit not given here; settings: patients with T2DM; for change of AUEC0-3 h relative to baseline for C-peptide (OGTT) / change of AUEC0-3 h relative to baseline for glucagon (OGTT) / change of AUEC0-3 h relative to baseline for insulin (OGTT) / change of AUEC0-3 h relative to baseline for plasma glucose (OGTT): day 15 vs day -1
# Procedure: To assess the impact of investigational products on glucose, insulin, C-peptide, and glucagon, OGTT tests were conducted on day -1 and day 15 following a fasting period of more than 8 hours. Subjects received a 75 g oral glucose dose and blood samples (1.5 mL for glucose, 3.5 mL for insulin and C-peptide, 2 mL for glucagon) were collected at 0, 0.167, 0.5, 1, 1.5, 2, and 3 h after ingestion of glucose. The PD parameters (AUEC0-t) for glucose, insulin, C-peptide, and glucagon were calculated by using drug effect module of non-compartmental method with Phoenix WinNonlin.
# plasma active GLP-1 [2] = test system: plasma active GLP-1; parameters: method as in PMID 34965609; settings: healthy subjects, cited from earlier work
# plasma active GLP-1 [3] = assay: Plasma active GLP-1 concentration change from baseline (ELISA); type: in vivo, human; settings: patients with T2DM; for GLP-1 Baseline (value before dosing): day 1 before dosing; for increase of plasma active GLP-1 AUEC0-24h compared with placebo group: after multiple dosing; for △GLP-1 TRmax,ss / △GLP-1 TRmax: median (range)
# Procedure: Blood samples for GLP-1 activity evaluation were collected at the same time points as for PK. 2 mL blood samples were collected for GLP-1 activity detection (20 μL DPP-4i was added to blood-collecting tubes beforehand). The tubes were placed on ice until centrifugation. The blood samples were centrifuged at 2-8°C, 1500 g for 10 minutes within 1 hour after blood collection. After centrifugation, the blood samples were evenly divided into two aliquots and stored at -80 ± 10°C. Plasma active GLP-1 concentrations were determined using a validated ELISA method. Linear calibration curves were obtained in the concentration range of 0.017-276 pM ([31]).
# The change of GLP-1 concentration from baseline (△GLP-1) was calculated as follows:
# Δ [GLP-1] = [GLP-1] (t) - [GLP-1] (0)
# The calculated parameters for GLP-1 activity were as follows: the baseline GLP-1 value before dosing (Baseline), Rmax, TRmax, AUEC0-t, AUEC0-24h, GLP-1 concentration change at 2 h after lunch (△GLP-1-6h), GLP-1 concentration change at 2 h after dinner (△GLP-1-12h), Rmin on day 14, and the average response on day 14 (Ravg).
# [4] = Safety and tolerability assessments (adverse events); type: in vivo, human; settings: patients with T2DM
# Procedure: Safety and tolerability were evaluated by monitoring adverse events (AEs), laboratory tests (including blood routine, urine routine, stool routine, blood biochemical test and coagulation function), vital signs, physical examination, 12-lead electrocardiogram and other indicators. AEs were monitored and collected throughout the study. Descriptive analysis of the type and intensity of AEs were conducted according to NCICTC AE5.0.
# DPP-4 activity = settings: healthy subjects; once-daily oral dose of ≧50 mg, multiple doses; cited from earlier work
# [5] = 50 mg group, day -1 (baseline before dosing)
# [6] = 100 mg group, day -1 (baseline before dosing)
# [7] = day 15 after 50 mg once daily for 14 days
# [8] = day 15 after 100 mg once daily for 14 days
# [9] = cetagliptin group (50 or 100 mg, n=20) / sitagliptin group (100 mg, n=8), 14 days
compound,measurement,setting,value
"C[C@@H]1c2cnc(C(F)(F)F)n2CCN1C(=O)C[C@H](N)Cc1cc(F)c(F)cc1F.O=P(O)(O)O [Cetagliptin, cetagliptin]",inhibition of serum DPP-4 activity,serum DPP-4 activity,≥ 80%
same,C-peptide AUEC0-t (OGTT),[1]; [5],4072.02 ± 1174.82
same,glucagon AUEC0-t (OGTT),[1]; [5],469.51 ± 189.76
same,glucose AUEC0-t (OGTT),[1]; [5],48.65 ± 5.34 mmol·h/L
same,insulin AUEC0-t (OGTT),[1]; [5],431.53 ± 271.81
same,change of AUEC0-3 h relative to baseline for C-peptide (OGTT),[1]; 50 mg once daily,1851.30
same,change of AUEC0-3 h relative to baseline for glucagon (OGTT),[1]; 50 mg once daily,-72.70
same,change of AUEC0-3 h relative to baseline for insulin (OGTT),[1]; 50 mg once daily,219.90
same,change of AUEC0-3 h relative to baseline for plasma glucose (OGTT),[1]; 50 mg once daily,-4.97 mmol·h/L
same,C-peptide AUEC0-t (OGTT),[1]; [6],6059.64 ± 1263.61
same,glucagon AUEC0-t (OGTT),[1]; [6],503.79 ± 161.61
same,glucose AUEC0-t (OGTT),[1]; [6],40.59 ± 2.87 mmol·h/L
same,insulin AUEC0-t (OGTT),[1]; [6],716.44 ± 250.84
same,change of AUEC0-3 h relative to baseline for C-peptide (OGTT),[1]; 100 mg once daily,1761.48
same,change of AUEC0-3 h relative to baseline for glucagon (OGTT),[1]; 100 mg once daily,-7.21
same,change of AUEC0-3 h relative to baseline for insulin (OGTT),[1]; 100 mg once daily,292.18
same,change of AUEC0-3 h relative to baseline for plasma glucose (OGTT),[1]; 100 mg once daily,-2.76 mmol·h/L
same,C-peptide AUEC0-t (OGTT),[1]; [7],5923.31 ± 2012.97
same,glucagon AUEC0-t (OGTT),[1]; [7],396.81 ± 51.89
same,glucose AUEC0-t (OGTT),[1]; [7],43.68 ± 8.04 mmol·h/L
same,insulin AUEC0-t (OGTT),[1]; [7],651.43 ± 455.05
same,C-peptide AUEC0-t (OGTT),[1]; [8],7821.13 ± 2023.09
same,glucagon AUEC0-t (OGTT),[1]; [8],496.58 ± 158.93
same,glucose AUEC0-t (OGTT),[1]; [8],37.83 ± 5.09 mmol·h/L
same,insulin AUEC0-t (OGTT),[1]; [8],1008.62 ± 367.20
same,accumulation ratios of Rmax and AUEC0-24 h for plasma active GLP-1,plasma active GLP-1 [2]; 50 mg,about 1.0
same,accumulation ratios of Rmax and AUEC0-24 h for plasma active GLP-1,plasma active GLP-1 [2]; 100 mg,about 1.0
same,GLP-1 Baseline (value before dosing),plasma active GLP-1 [3]; 50 mg group,0.491 ± 0.815 pM
same,accumulation ratios of Rmax and AUEC0-24 h for plasma active GLP-1,plasma active GLP-1 [3]; 50 mg once daily,about 1.5
same,increase of plasma active GLP-1 AUEC0-24h compared with placebo group,plasma active GLP-1 [3]; 50 mg once daily,2.20 fold
same,"R0h,ss (baseline plasma active GLP-1 on day 14)","plasma active GLP-1 [3]; 50 mg oral once daily, day 14",1.787 ± 1.046 pM
same,△GLP-1-6h (change at 2 h after lunch),"plasma active GLP-1 [3]; 50 mg oral once daily, day 14",4.145 ± 0.920 pM
same,△GLP-1-12h (change at 2 h after dinner),"plasma active GLP-1 [3]; 50 mg oral once daily, day 14",3.880 ± 1.641 pM
same,△GLP-1 AUEC0-24h,"plasma active GLP-1 [3]; 50 mg oral once daily, day 14",57.8 ± 22.7 pM·h
same,"△GLP-1 Ravg,ss","plasma active GLP-1 [3]; 50 mg oral once daily, day 14",2.408 ± 0.944 pM
same,"△GLP-1 Rmax,ss","plasma active GLP-1 [3]; 50 mg oral once daily, day 14",5.891 ± 1.692 pM
same,"R0h,ss (baseline plasma active GLP-1 on day 14)","plasma active GLP-1 [3]; 50 mg oral once daily, day 14, listed as cetagliptin",1.787 pM
same,"△GLP-1 TRmax,ss","plasma active GLP-1 [3]; 50 mg oral once daily, day 14",5.00 (5.00-12.00) h
same,△GLP-1-6h (change at 2 h after lunch),"plasma active GLP-1 [3]; 50 mg oral, day 1",2.457 ± 1.135 pM
same,△GLP-1-12h (change at 2 h after dinner),"plasma active GLP-1 [3]; 50 mg oral, day 1",2.887 ± 0.981 pM
same,△GLP-1 AUEC0-24h,"plasma active GLP-1 [3]; 50 mg oral, day 1",42.6 ± 10.0 pM·h
same,△GLP-1 Rmax,"plasma active GLP-1 [3]; 50 mg oral, day 1",3.866 ± 1.031 pM
same,△GLP-1 TRmax,"plasma active GLP-1 [3]; 50 mg oral, day 1",5.00 (5.00-12.00) h
same,GLP-1 Baseline (value before dosing),plasma active GLP-1 [3]; 100 mg group,0.434 ± 0.393 pM
same,accumulation ratios of Rmax and AUEC0-24 h for plasma active GLP-1,plasma active GLP-1 [3]; 100 mg once daily,about 1.5
same,increase of plasma active GLP-1 AUEC0-24h compared with placebo group,plasma active GLP-1 [3]; 100 mg once daily,3.36 fold
same,"R0h,ss (baseline plasma active GLP-1 on day 14)","plasma active GLP-1 [3]; 100 mg oral once daily, day 14",1.858 ± 1.186 pM
same,△GLP-1-6h (change at 2 h after lunch),"plasma active GLP-1 [3]; 100 mg oral once daily, day 14",7.006 ± 3.171 pM
same,△GLP-1-12h (change at 2 h after dinner),"plasma active GLP-1 [3]; 100 mg oral once daily, day 14",5.648 ± 1.810 pM
same,△GLP-1 AUEC0-24h,"plasma active GLP-1 [3]; 100 mg oral once daily, day 14",88.2 ± 29.6 pM·h
same,"△GLP-1 Ravg,ss","plasma active GLP-1 [3]; 100 mg oral once daily, day 14",3.673 ± 1.234 pM
same,"△GLP-1 Rmax,ss","plasma active GLP-1 [3]; 100 mg oral once daily, day 14",7.868 ± 2.565 pM
same,"R0h,ss (baseline plasma active GLP-1 on day 14)","plasma active GLP-1 [3]; 100 mg oral once daily, day 14, listed as cetagliptin",1.858 pM
same,"△GLP-1 TRmax,ss","plasma active GLP-1 [3]; 100 mg oral once daily, day 14",6.00 (5.00-12.00) h
same,△GLP-1-6h (change at 2 h after lunch),"plasma active GLP-1 [3]; 100 mg oral, day 1",4.269 ± 2.232 pM
same,△GLP-1-12h (change at 2 h after dinner),"plasma active GLP-1 [3]; 100 mg oral, day 1",3.600 ± 2.410 pM
same,△GLP-1 AUEC0-24h,"plasma active GLP-1 [3]; 100 mg oral, day 1",63.1 ± 34.3 pM·h
same,△GLP-1 Rmax,"plasma active GLP-1 [3]; 100 mg oral, day 1",6.026 ± 3.823 pM
same,△GLP-1 TRmax,"plasma active GLP-1 [3]; 100 mg oral, day 1",5.00 (5.00-12.00) h
same,intensity of drug-related adverse events,"[4]; cetagliptin 50 or 100 mg, sitagliptin 100 mg, 14 days",mild
same,number of drug-related AEs,[4]; [9],3 AEs
same,number of subjects reporting drug-related AEs,[4]; [9],2 subjects
same,serious AEs or withdrawals due to AEs,[4]; once daily for 14 days,no serious AEs or withdraws due to AEs
same,sustained DPP-4 inhibition,DPP-4 activity,≥ 80%
